Test system: irradiated grp mutant larvae
Experiment: Survival screen of irradiated and non-irradiated grp mutant and wild-type larvae
Assay type: in vivo, Drosophila melanogaster
Conditions: colchicine 1.3 μM in cornmeal-agar food; 4,000 Rads of X-rays; cumulative results of three screens; FIG. 1
Description: To obtain correctly aged larvae, embryos are collected at Day 0 from wild-type and grp mutant heterozygous adults for approximately 4 hours in the late afternoon or early evening 4 days prior to experiment. The embryos are allowed to hatch into larvae and the larvae are allowed to develop. The grp mutant heterozygote adults carry a grp mutation on one chromosome and a wild-type grp gene on a balancer chromosome. The balancer chromosome also carries a Green Fluorescent Protein (GFP) transgene.
In the morning of Day 4, food is washed from larvae by using stacked sieves (VWR; USA Standard Testing Sieve: 850, 600, 425, 180 micrometer). […]
At Day 9, the total number of pupae formed are counted (this gives the percentage of larvae that survived into pupae). In the vials with progeny from grp heterozygous parents, the grp heterozygous pupae and the wild-type pupae are identified by virtue of their expression of GFP and are not counted. At Day 14, the number of empty pupae are counted (indicating the number of pupae that eclosed into adults).
Survival is expressed as the percentage of larvae that form pupae, and the percentage of pupae that eclose into adults. […]

COc1cc2c(c(OC)c1OC)-c1ccc(OC)c(=O)cc1[C@@H](NC(C)=O)CC2 [colchicine]
survival of irradiated grp mutant larvae (grp+R) relative to non-irradiated grp mutant larvae (grp-R), wild-type irradiated larvae (SEV+R) and wild-type non-irradiated larvae (SEV-R): selectively reduces the survival

Reference: patent US7695899B2, “Methods of identifying and using chemotherapeutic agents” (The Regents of the University of Colorado, a body corporate, priority 2003, dated 2010)
